# Target: T1, CRTH2 (DP2) (Homo sapiens, UniProt Q9Y5Y4)
# T1 construct: host or cells: CHO cells
# T1 sequence (Q9Y5Y4 1-395): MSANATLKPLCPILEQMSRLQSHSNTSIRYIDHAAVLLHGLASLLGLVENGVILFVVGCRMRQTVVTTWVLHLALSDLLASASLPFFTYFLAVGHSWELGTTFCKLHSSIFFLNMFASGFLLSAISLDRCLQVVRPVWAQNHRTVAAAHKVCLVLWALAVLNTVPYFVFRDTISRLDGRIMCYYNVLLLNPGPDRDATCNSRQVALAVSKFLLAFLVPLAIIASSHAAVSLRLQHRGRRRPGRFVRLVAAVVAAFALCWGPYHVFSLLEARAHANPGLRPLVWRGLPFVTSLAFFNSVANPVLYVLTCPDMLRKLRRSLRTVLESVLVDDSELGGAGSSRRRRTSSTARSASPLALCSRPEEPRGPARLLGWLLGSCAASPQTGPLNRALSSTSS
# Assay: Radioligand binding Scintillation Proximity Assay ([3H]PGD2, hCRTH2-CHO cell membranes)
# Settings: 1.5 nM [3H]PGD2, hCRTH2-CHO cell membranes, SPA
# Method: Adherent CHO cells expressing hCRTH2 (Euroscreen, Belgium) were cultured in 225 cm^2 cell culture flasks (Corning, USA) in 30 ml of medium. After two rinses of phosphate buffered saline (PBS), cells were harvested in 10 ml of PBS containing 1 mM EDTA, centrifuged at 500×g for 5 min at 4° C. and frozen at −80° C. The pellet was re-suspended in 50 mM Tris-HCl, pH 7.4, 2 mM EDTA, 250 mM Sucrose, containing protease inhibitor cocktail tablets, (Complete EDTA-free, Roche, Germany) and incubated 30 min at 4° C. Cells were disrupted by nitrogen cavitation (Parr Instruments, USA) at 4° C. (800 p.s.i. for 30 min), and centrifuged at 500×g for 10 min at 4° C. Pellet containing nuclei and cellular debris was discarded and supernatant was centrifuged 60 min at 4° C. at 45000×g. Membrane pellet was re-suspended in storage buffer (10 mM HEPES/KOH pH 7.4, 1 mM EDTA, 250 mM sucrose, protease inhibitor cocktail tablets) using Dounce homogenization and frozen in liquid nitrogen, and stored at 80° C.
# Non-specific binding was determined in the presence of 10 μM PGD2 (Cayman, USA). Competing Compounds of Formula (I) were diluted in dimethylsulphoxide so that the total volume of dimethylsulfoxide was kept constant at 1% dimethylsulphoxide (Me2SO). Serial dilutions of […] were prepared and 10 μl each of the compounds of Formula (I) stock solutions were added to the binding assay reagents and incubated for 90 min with agitation at room temperature.
row,Structure (SMILES),IC50
1,"CCCCC(=O)N(Cc1ccc2ccccc2c1)c1cc(-c2nnn[nH]2)ccc1F [Example 6, N-[2-fluoro-5-(1H-tetrazol-5-yl)phenyl]-N-(2-naphthylmethyl)pentanamide]",0.023 µM
2,"CCC(=O)N(Cc1ccc(SC(F)(F)F)cc1)c1cc(F)cc(-c2nnn[nH]2)c1 [Example 82, N-[3-fluoro-5-(1H-tetrazol-5-yl)phenyl]-N-{4-[(trifluoromethyl)thio]benzyl}propanamide]",0.0026 µM
3,"CCC(=O)N(Cc1cccc(-c2cnoc2)c1)c1cccc(-c2nnn[nH]2)c1 [Example 62, N-(3-isoxazol-4-ylbenzyl)-N-[3-(1H-tetrazol-5-yl)phenyl]propanamide]",0.769 µM
4,"CCC(=O)N(Cc1ccc2ncccc2c1)c1cccc(-c2nnn[nH]2)c1 [Example 72, N-(quinolin-6-ylmethyl)-N-[3-(1H-tetrazol-5-yl)phenyl]propanamide]",1.11 µM
5,"CCC(=O)N(Cc1ccc(OC(F)(F)F)c(Cl)c1)c1cccc(-c2nnn[nH]2)c1 [Example 45, N-[3-chloro-4-(trifluoromethoxy)benzyl]-N-[3-(1H-tetrazol-5-yl)phenyl]propanamide]",0.083 µM
6,"CCC(=O)N(Cc1ccc(OC(F)(F)F)cc1)c1cc(F)cc(-c2nnn[nH]2)c1 [Example 36, N-[3-fluoro-5-(1H-tetrazol-5-yl)phenyl]-N-[4-(trifluoromethoxy)benzyl]propanamide]",0.0093 µM
7,"CCC(=O)N(Cc1cccc(SC(F)(F)F)c1)c1cc(F)cc(-c2nnn[nH]2)c1 [Example 77, N-[3-fluoro-5-(1H-tetrazol-5-yl)phenyl]-N-{3-[(trifluoromethyl)thio]benzyl}propanamide]",0.016 µM
8,"CCC(=O)N(Cc1ccc(OC(F)(F)F)cc1)c1cccc(-c2nnn[nH]2)c1 [Example 22, N-[3-(1H-tetrazol-5-yl)phenyl]-N-[4-(trifluoromethoxy)benzyl]propanamide]",0.132 µM
9,"CCCCC(=O)N(Cc1ccc(C(F)(F)F)cc1)c1cc(F)cc(-c2nnn[nH]2)c1 [Example 60, N-[3-fluoro-5-(1H-tetrazol-5-yl)phenyl]-N-[4-(trifluoromethyl)benzyl]pentanamide]",0.0026 µM
10,"CCC(=O)N(Cc1cccc(OC(C)C)c1)c1cc(F)cc(-c2nnn[nH]2)c1 [Example 75, N-[3-fluoro-5-(1H-tetrazol-5-yl)phenyl]-N-(3-isopropoxybenzyl)propanamide]",0.0071 µM
11,"CCC(=O)N(Cc1nc2ccccc2s1)c1cccc(-c2nnn[nH]2)c1 [Example 43, N-(1,3-benzothiazol-2-ylmethyl)-N-[3-(1H-tetrazol-5-yl)phenyl]propanamide]",0.663 µM
12,"CCC(=O)N(Cc1ccsc1)c1cccc(-c2nnn[nH]2)c1 [Example 18, N-[3-(1H-tetrazol-5-yl)phenyl]-N-(3-thienylmethyl)propanamide]",2.1 µM
13,"CCCCC(=O)N(Cc1cccc(OC(F)(F)F)c1)c1cc(F)cc(-c2nnn[nH]2)c1 [Example 29, N-[3-fluoro-5-(1H-tetrazol-5-yl)phenyl]-N-[3-(trifluoromethoxy)benzyl]pentanamide]",0.0052 µM
14,"CCC(=O)N(Cc1cccc(-c2ccncc2)c1)c1cc(F)cc(-c2nnn[nH]2)c1 [Example 83, N-[3-fluoro-5-(1H-tetrazol-5-yl)phenyl]-N-(3-pyridin-4-ylbenzyl)propanamide]",0.025 µM
15,"CCC(=O)N(Cc1cccc(C)c1)c1cccc(-c2nnn[nH]2)c1 [Example 73, N-(3-methylbenzyl)-N-[3-(1H-tetrazol-5-yl)phenyl]propanamide]",0.662 µM
16,"CCC(=O)N(Cc1ccc(C(F)(F)F)cc1)c1cccc(-c2nnn[nH]2)c1 [Example 27, N-[3-(1H-tetrazol-5-yl)phenyl]-N-[4-(trifluoromethyl)benzyl]propanamide]",0.129 µM
17,"CCC(=O)N(Cc1ccc2c(c1)OCO2)c1cccc(-c2nnn[nH]2)c1 [Example 34, N-(1,3-benzodioxol-5-ylmethyl)-N-[3-(1H-tetrazol-5-yl)phenyl]propanamide]",0.147 µM
18,"CCC(=O)N(Cc1ccc2c(c1)OCCO2)c1cccc(-c2nnn[nH]2)c1 [Example 20, N-(2,3-dihydro-1,4-benzodioxin-6-ylmethyl)-N-[3-(1H-tetrazol-5-yl)phenyl]propanamide]",0.051 µM
19,"CCCCC(=O)N(Cc1ccsc1)c1cccc(-c2nnn[nH]2)c1 [Example 21, N-[3-(1H-tetrazol-5-yl)phenyl]-N-(3-thienylmethyl)pentanamide]",0.759 µM
20,"CC(C)CC(=O)N(Cc1ccc2c(c1)OCCO2)c1cc(-c2nnn[nH]2)ccc1F [Example 7, N-(2,3-dihydro-1,4-benzodioxin-6-ylmethyl)-N-[2-fluoro-5-(1H-tetrazol-5-yl)phenyl]-3-methylbutanamide]",0.0071 µM
21,"CCCCC(=O)N(Cc1ccc2c(c1)OCCO2)c1cc(-c2nnn[nH]2)ccc1F [Example 15, N-(2,3-dihydro-1,4-benzodioxin-6-ylmethyl)-N-[2-fluoro-5-(1H-tetrazol-5-yl)phenyl]pentanamide]",0.0042 µM
22,"CCCC(=O)N(Cc1ccc2c(c1)OCCO2)c1cccc(-c2nnn[nH]2)c1 [Example 19, N-(2,3-dihydro-1,4-benzodioxin-6-ylmethyl)-N-[3-(1H-tetrazol-5-yl)phenyl]butanamide]",0.015 µM
23,"CCC(=O)N(Cc1cccc(-c2cccnc2)c1)c1cc(F)cc(-c2nnn[nH]2)c1 [Example 81, N-[3-fluoro-5-(1H-tetrazol-5-yl)phenyl]-N-(3-pyridin-3-ylbenzyl)propanamide]",0.034 µM

# Second part, the compound after the results:
row,IC50,Structure (SMILES)
1,0.019 µM,"CCC(=O)N(Cc1cccc([S+]([O-])C(F)(F)F)c1)c1cc(F)cc(-c2nnn[nH]2)c1 (stereo not shown) [Example 112, N-[3-fluoro-5-(1H-tetrazol-5-yl)phenyl]-N-{3-[(trifluoromethyl)sulfinyl]benzyl}propanamide]"
2,0.019 µM,"CC(C)C(=O)N(Cc1ccc(S(C)(=O)=O)cc1)c1cc(F)cc(-c2nnn[nH]2)c1 [Example 117, N-[3-fluoro-5-(1H-tetrazol-5-yl)phenyl]-2-methyl-N-[4-(methylsulfonyl)benzyl]propanamide]"
3,0.013 µM,"CCC(=O)N(Cc1ccc(-c2ccccc2OC)cc1)c1cc(F)cc(-c2nnn[nH]2)c1 [Example 99, N-[3-fluoro-5-(1H-tetrazol-5-yl)phenyl]-N-[(2′-methoxybiphenyl-4-yl)methyl]propanamide]"
4,0.019 µM,"CCC(=O)N(Cc1cccc(-c2c(C)noc2C)c1)c1cc(F)cc(-c2nnn[nH]2)c1 [Example 85, N-[3-(3,5-dimethylisoxazol-4-yl)benzyl]-N-[3-fluoro-5-(1H-tetrazol-5-yl)phenyl]propanamide]"
5,0.07 µM,"CCC(=O)N(Cc1ccc(-c2ccccc2)cc1)c1cc(F)cc(-c2nnn[nH]2)c1 [Example 97, N-(biphenyl-4-ylmethyl)-N-[3-fluoro-5-(1H-tetrazol-5-yl)phenyl]propanamide]"
6,0.0056 µM,"CCC(=O)N(Cc1ccc(S(=O)(=O)C(F)(F)F)cc1)c1cc(F)cc(-c2nnn[nH]2)c1 [Example 95, N-[3-fluoro-5-(1H-tetrazol-5-yl)phenyl]-N-{4-[(trifluoromethyl)sulfonyl]benzyl}propanamide]"
7,0.032 µM,"CS(=O)(=O)c1ccc(CN(C(=O)C2CCOCC2)c2cc(F)cc(-c3nnn[nH]3)c2)cc1 [Example 118, N-[3-fluoro-5-(1H-tetrazol-5-yl)phenyl]-N-[4-(methylsulfonyl)benzyl]tetrahydro-2H-pyran-4-carboxamide]"
8,0.0035 µM,"CCC(=O)N(Cc1ccc([S+]([O-])C(F)(F)F)cc1)c1cc(F)cc(-c2nnn[nH]2)c1 (stereo not shown) [Example 113, N-[3-fluoro-5-(1H-tetrazol-5-yl)phenyl]-N-{4-[(trifluoromethyl)sulfinyl]benzyl}propanamide]"
9,0.031 µM,"CCC(=O)N(Cc1ccc(-c2ccccc2Cl)cc1)c1cc(F)cc(-c2nnn[nH]2)c1 [Example 98, N-[(2′-chlorobiphenyl-4-yl)methyl]-N-[3-fluoro-5-(1H-tetrazol-5-yl)phenyl]propanamide]"
10,0.185 µM,"CCC(=O)N(Cc1ccc(-c2cccc(S(C)(=O)=O)c2)cc1)c1cc(F)cc(-c2nnn[nH]2)c1 [Example 87, N-[3-fluoro-5-(1H-tetrazol-5-yl)phenyl]-N-{[3′-(methylsulfonyl)biphenyl-4-yl]methyl}propanamide]"
11,0.125 µM,"CCC(=O)N(Cc1ccc(-c2cccc(S(=O)(=O)N(C)C)c2)cc1)c1cc(F)cc(-c2nnn[nH]2)c1 [Example 93, N-({3′-[(dimethylamino)sulfonyl]biphenyl-4-yl}methyl)-N-[3-fluoro-5-(1H-tetrazol-5-yl)phenyl]propanamide]"

# — US20120115869A1, “TETRAZOLE DERIVATIVES” (MERCK SERONO S.A., priority 2009, published 2012)
